Assay results from patent US20180185414A1, “CALCIUM SALT COMPOSITION AND FILAGGRIN PRODUCTION PROMOTER USING THE SAME” (NISSAN CHEMICAL INDUSTRIES, LTD., priority 2015, published 2018).

Tests used:
[1] = tested on: filaggrin production in human skin keratinocytes (NHEK); assay: Filaggrin production test (A): fluorescent immunostaining with Anti-FLG; assay type: cell-based; conditions: for Increase rate of brightness: overnight, relative to Lcell of Comparative Test Example 2 (no calcium salt added = 100); for Brightness/Cell number (Lcell): incubated overnight
Description: Various calcium salts were dispersed in water so that the concentration calculated in terms of calcium ion would be 0.89 M, this obtained dispersed solution was then sterilized in an autoclave (at 120° C. for 20 minutes), and thereby various calcium salt stock dispersed solutions were prepared.
Then, according to Table 11, each calcium salt stock aqueous dispersed solution was added to a medium (manufactured by KURABO […] LTD., HuMedia-KG2) while pipetting so that that a predetermined supplemented concentration calculated in terms of calcium ion would be obtained, and thereby a calcium salt supplemented medium was prepared.
On a culture plate of 24-wells to which the same medium as used in the preparation of the above-mentioned calcium salt supplemented medium was added, human skin keratinocytes (manufactured by KURABO […] LTD., NHEK) were inoculated so that the cell density would be 3,800 cells/cm^2, and this was cultured for 3 days (37° C., 5% CO2). Then, this medium was exchanged with the calcium salt supplemented medium prepared as mentioned above and incubated for overnight (37° C., 5% CO2).
Whether filaggrin is produced by a calcium salt was examined using fluorescent immunostaining methods by Anti-Filaggrin/FLG, Rabbit-Poly, Alexa Fluor 488 (manufactured by BIS, hereinafter referred to as “Anti-FLG” as well). Moreover, for comparing the staining, DAPI (4′,6-diamidino-2-phenylindole dihydrochloride, manufactured by Wako Pure Chemical Industries, Ltd) was used to stain the nucleus.
That is to say that the above-mentioned incubated cells for overnight were washed with PBS and fixed with 4% paraformaldehyde solution (manufactured by Wako Pure Chemical Industries, Ltd). The fixed cells were permeabilized with 0.1% Triton-X 100, incubated for overnight with Anti-FLG PBS solution (×50) at 4° C., and then stained with a PBS solution of 100 nM DAPI. Note that the cells were washed with PBS after every operation.
For calculating the relative production amount of filaggrin, a fluorescent microscopic image of the above-mentioned stained cells was taken. The brightness of the image was quantified using Photoshop CS3, and this was normalized by dividing the obtained numerical value with cell numbers (Brightness/Cell number; Lcell). Moreover, the increase rate of brightness by adding various calcium salts in comparison with Lcell of the Comparative Test Example 2 in which calcium salt aqueous dispersed solution has not been added to the medium was calculated.

[2] = tested on: filaggrin production in human skin keratinocytes (NHEK); assay: Filaggrin production test (B): calcium salt composition, fluorescent immunostaining; assay type: cell-based; conditions: for Increase rate of brightness: unsupplemented = 100
Description: Then, according to Table 12, the calcium salt stock aqueous dispersed solution was added to the same medium as used in filaggrin production test (A) while pipetting so that a predetermined supplemented concentration calculated in terms of calcium ion would be obtained, and thereby a calcium salt supplemented medium was prepared.
On a culture plate of 24-wells to which the same medium as used in filaggrin production test (A) was added, human skin keratinocytes (manufactured by KURABO […] LTD., NHEK) were inoculated so that the cell density would be 3,800 cells/cm^2, and this was cultured for 3 days (37° C., 5% CO2). Then, this medium was exchanged with the calcium salt supplemented medium prepared as mentioned above and incubated for a day or two (37° C., 5% CO2). These incubated cells were stained as in the above-mentioned filaggrin production test (A), and Lcell and the increase rate of brightness were calculated.

[3] = supplemented concentration calculated in terms of calcium ion 1.78 mM
[4] = calcium ion 0.09 mM, cells incubated for 1 day
[5] = calcium ion 0.09 mM, cells incubated for 2 days
[6] = calcium ion 0.89 mM, cells incubated for 1 day
[7] = calcium ion 0.89 mM, cells incubated for 2 days
[8] = supplemented concentration calculated in terms of calcium ion 0.89 mM

Compound	Increase rate of brightness ([1]; calcium ion 1.78 mM) [%]	Brightness/Cell number (Lcell) [1, 3]	Brightness/Cell number (Lcell) [2, 4]	Increase rate of brightness [2, 4] [%]	Brightness/Cell number (Lcell) [2, 5]	Increase rate of brightness [2, 5] [%]	Brightness/Cell number (Lcell) [2, 6]	Increase rate of brightness [2, 6] [%]	Brightness/Cell number (Lcell) [2, 7]	Increase rate of brightness [2, 7] [%]	Increase rate of brightness ([1]; calcium ion 0.89 mM) [%]	Brightness/Cell number (Lcell) [1, 8]	Filaggrin production compared to calcium chloride ([1]; human skin keratinocytes, Table 11)
[Ca+2].[Cl-].[Cl-] [Calcium chloride]	130	0.12	0.20	83	0.16	89	0.23	96	0.20	110	–	–	–
O=P([O-])(O)O.O=P([O-])(O)O.[Ca+2] [Calcium dihydrogen phosphate]	–	–	–	–	–	–	–	–	–	–	180	0.17	–
O=P([O-])([O-])OP(=O)([O-])[O-].[Ca+2].[Ca+2] [Calcium pyrophosphate]	260	0.25	–	–	–	–	–	–	–	–	290	0.28	relatively high filaggrin production as compared to that of calcium chloride
Calcium glycerophosphate	200	0.19	–	–	–	–	–	–	–	–	–	–	–
